Experimental data reported in EP1027888B1, “Osmotic system for delivery of solid amorphous dispersions of drugs” (Pfizer Products Inc., priority 1999, dated 2000).
Values after ≈ are worked out from the molar mass of the structure shown.

Assays:
physchem = details: water
[1] = dissolution in phosphate-buffered solution pH 7.2 (Example 7); assay type: physicochemical; details: 50 ml phosphate-buffered solution pH 7.2
Description: For a comparative dissolution study, Control G, consisting of 100 mg of crystalline Drug 2 was prepared. The dissolution of drug was studied by placing one each of the bi-layer tablet and Control G preparation containing an equal amount of Drug 2 in 50 ml of the phosphate-buffered solution of Example 3 (pH 7.2, osmotic pressure 5.3 atm) to simulate an intestinal environment of use.

[2] = dissolution in phosphate buffered saline (PBS) solution (Example 3); assay type: physicochemical; details: 35 ml PBS solution
Description: For a comparative dissolution study, Control E, consisting of 35 mg of crystalline Drug 2 was prepared. The dissolution of drug was studied by placing two of the trilayer tablets and Control E each in 35 ml of a phosphate buffered saline (PBS) solution composed of 6 mM KH2PO4, 5 mM NaOH, 60 mM KC1 and 30 mM NaCl. The data for the trilayer tablet is the average of the values for the two tablets tested.

[3] = dissolution in MFD solution (Example 6); assay type: physicochemical; details: 50 ml MFD solution
Description: A Model Fasted Duodenum (MFD) solution was prepared to mimic the chemical environment of the small intestine, the solution comprising a phosphate-buffered saline solution containing 14.7 mM sodium taurocholic acid and 2.8 mM of 1-palmitoyl-2-oleyl-sn-glycero-3-phosphocholine with a pH of 6.5.
The data for the tri-layer tablet is the average of the values for the two tablets tested.

[4] = dissolution in MFD solution (Example 8); assay type: physicochemical; details: 40 ml MFD solution
Description: For a comparative dissolution study, Control H, consisting of 111.4 mg of the crystalline drug, was used. The dissolution of drug was studied by placing the bilayer tablet and Control H each in 40 ml of MFD solution.

## O=C(N[C@@H](Cc1ccccc1)[C@@H](O)C(=O)N1C[C@@H](O)[C@@H](O)C1)c1cc2cc(Cl)ccc2[nH]1 [Drug 2]
physchem
  solubility: 80 µg/mL (≈ 175 µM)
[1]
  MDC: 77 µg/mL
[1]; time 0 hr
  [Drug]: 0 µg/mL
[1]; time 1 hr
  [Drug]: 59 µg/mL
[1]; time 2 hr
  [Drug]: 72 µg/mL
[1]; time 4 hr
  [Drug]: 72 µg/mL
[1]; time 8 hr
  [Drug]: 77 µg/mL
[1]; time 12 hr
  [Drug]: 71 µg/mL
[1]; time 18 hr
  [Drug]: 71 µg/mL
[1]; time 24 hr
  [Drug]: 75 µg/mL
[2]
  MDC: 171 µg/mL
[2]; time 0.3 hr
  [Drug]: 99 µg/mL
[2]; time 1.5 hr
  [Drug]: 148 µg/mL
[2]; time 2.0 hr
  [Drug]: 165 µg/mL
[2]; time 3.0 hr
  [Drug]: 137 µg/mL
[2]; time 4.0 hr
  [Drug]: 142 µg/mL
[2]; time 12.0 hr
  [Drug]: 157 µg/mL
[2]; time 20.0 hr
  [Drug]: 171 µg/mL

## [R-(R*,S*)]-5-chloro-N-[2-hydroxy-3-[methoxymethylamino)-3-1-(phenylmethyl)propyl]propyl]-1H-indole-2-carboxamide [Drug 1]
[3]
  MDC: 16 µg/mL
[3]; time 0 hr
  [Drug]: 0 µg/mL
[3]; time 2 hr
  [Drug]: 13 µg/mL
[3]; time 4 hr
  [Drug]: 16 µg/mL
[3]; time 8 hr
  [Drug]: 13 µg/mL
[3]; time 12 hr
  [Drug]: 15 µg/mL
[3]; time 20 hr
  [Drug]: 12 µg/mL
[3]; time 24 hr
  [Drug]: 11 µg/mL

## CN[C@H]1CC[C@@H](c2ccc(Cl)c(Cl)c2)c2ccccc21 [sertraline]
[4]
  MDC: 401 µg/mL
[4]; time 0 hr
  [Drug]: 0 µg/mL
[4]; time 0.2 hr
  [Drug]: 278 µg/mL
[4]; time 0.3 hr
  [Drug]: 401 µg/mL
[4]; time 0.7 hr
  [Drug]: 341 µg/mL
[4]; time 1.5 hr
  [Drug]: 217 µg/mL
[4]; time 2 hr
  [Drug]: 188 µg/mL
[4]; time 3 hr
  [Drug]: 168 µg/mL
[4]; time 4 hr
  [Drug]: 152 µg/mL
[4]; time 6 hr
  [Drug]: 160 µg/mL
[4]; time 10 hr
  [Drug]: 137 µg/mL
[4]; time 14 hr
  [Drug]: 135 µg/mL
[4]; time 24 hr
  [Drug]: 191 µg/mL
[4]; up to 0 hr
  AUC: 0 µg·min/mL
[4]; up to 0.2 hr
  AUC: 830 µg·min/mL
[4]; up to 0.3 hr
  AUC: 4,230 min·µg/mL
[4]; up to 0.7 hr
  AUC: 11,650 min·µg/mL
[4]; up to 1.5 hr
  AUC: 25,610 min·µg/mL
[4]; up to 2 hr
  AUC: 31,700 min·µg/mL
[4]; up to 3 hr
  AUC: 42,400 min·µg/mL
[4]; up to 4 hr
  AUC: 52,000 min·µg/mL
[4]; up to 6 hr
  AUC: 70,640 min·µg/mL
[4]; up to 10 hr
  AUC: 106,200 min·µg/mL
[4]; up to 14 hr
  AUC: 122,500 min·µg/mL
